Test results as given in patent US20240277658A1, “NLRP3 ACTIVATORS FOR USE IN THE TREATMENT OF INFECTIOUS DISEASES OR CANCER BY ACTIVATING NLRP3 INFLAMMASOME” (ALBERT-LUDWIGS-UNIVERSITÄT FREIBURG, priority 2020, published 2024).
Values joined by “and” are separate entries in the source; they are usually repeats but may differ in a detail not shown here. Equal values may be shown once. Read-outs that look alike come from different tables or passages of the source.

Legend:
BMDCs = experiment: LDH release (lytic cell death, pyroptosis) from LPS-primed BMDCs; type: cell-based, mouse; conditions: section 1.4; for cytotoxicity at 18.75 µM / cytotoxicity at 37.5 µM / cytotoxicity at 75 µM: Mus musculus, BMDC; for Average (% positive control): LDH release, positive control EN22 18.75 μM
Outline: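 Mouse BMDCs (7-9 days differentiated, GM-CSF) primed with 50 ng ml^−1 E. coli K12 LPS for 3 hours, then exposed 3 hours to compounds (50 μM unless indicated) or activators (nigericin 5 μM; R837, CL097 100 μM). Lytic death measured as LDH release by colorimetric assay, triplicate wells.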

NLRP3 inflammasome = target: T1, NLRP3 inflammasome (Mus musculus, UniProt Q8R4B8); experiment: IL-1β release from LPS-primed BMDCs (ELISA) as readout of NLRP3 inflammasome activation; type: cell-based; conditions: for IL-1β: individual replicate values; for Average (% positive control): IL-1β, positive control EN22 18.75 μM
T1 construct: endogenous in cells; host or cells: primary mouse bone marrow-derived dendritic cells (BMDCs), LPS-primed
Outline: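 NLRP3 inflammasome activation was read out as IL-1β released into the supernatant, measured by ELISA. Murine BMDCs were primed with LPS (50 ng ml^−1, 3 hours), then incubated with compounds for 3 hours, with each condition run in three technical replicates. Nigericin at 5 μM acted as the positive control activator, and IL-1β release was also expressed as a percentage of that control.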

[1] = 18.75 μM, read-out: Average LDH release (% of max.)
[2] = 37.5 μM, read-out: Average LDH release (% of max.)
[3] = 75 μM, read-out: Average LDH release (% of max.)
[4] = single replicates, 18.75 μM, read-out: LDH release (% of max.)
[5] = single replicates, 37.5 μM, read-out: LDH release (% of max.)
[6] = single replicates, 75 μM, read-out: LDH release (% of max.)

T1 sequence (Q8R4B8 whole entry): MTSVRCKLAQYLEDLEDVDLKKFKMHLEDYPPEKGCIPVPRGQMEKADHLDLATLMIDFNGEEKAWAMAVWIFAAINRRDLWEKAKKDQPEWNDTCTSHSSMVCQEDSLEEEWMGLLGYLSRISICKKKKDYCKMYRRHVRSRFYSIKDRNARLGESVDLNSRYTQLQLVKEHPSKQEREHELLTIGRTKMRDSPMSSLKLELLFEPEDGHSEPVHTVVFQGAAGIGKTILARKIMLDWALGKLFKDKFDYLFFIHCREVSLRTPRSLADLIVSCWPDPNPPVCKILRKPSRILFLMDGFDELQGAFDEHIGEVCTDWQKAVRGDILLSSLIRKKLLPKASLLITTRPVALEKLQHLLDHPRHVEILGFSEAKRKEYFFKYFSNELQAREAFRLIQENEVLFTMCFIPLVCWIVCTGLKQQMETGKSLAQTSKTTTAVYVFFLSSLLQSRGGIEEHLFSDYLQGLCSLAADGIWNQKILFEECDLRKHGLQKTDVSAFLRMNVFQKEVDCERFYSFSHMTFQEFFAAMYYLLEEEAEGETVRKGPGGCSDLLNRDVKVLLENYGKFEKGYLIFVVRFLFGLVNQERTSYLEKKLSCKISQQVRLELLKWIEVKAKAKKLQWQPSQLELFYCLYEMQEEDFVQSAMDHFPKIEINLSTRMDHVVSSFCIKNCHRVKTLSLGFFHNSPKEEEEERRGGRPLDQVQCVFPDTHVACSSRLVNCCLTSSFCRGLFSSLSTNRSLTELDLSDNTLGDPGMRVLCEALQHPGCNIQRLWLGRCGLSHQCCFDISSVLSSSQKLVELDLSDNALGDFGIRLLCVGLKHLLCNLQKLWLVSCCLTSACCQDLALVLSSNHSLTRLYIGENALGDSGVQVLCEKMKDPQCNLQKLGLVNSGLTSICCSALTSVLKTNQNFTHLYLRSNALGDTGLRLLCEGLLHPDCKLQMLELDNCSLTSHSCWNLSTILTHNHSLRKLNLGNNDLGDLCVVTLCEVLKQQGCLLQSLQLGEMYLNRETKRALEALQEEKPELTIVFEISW

Average IL-1β (NLRP3 inflammasome; 18.75 μM)	Average IL-1β (NLRP3 inflammasome; 37.5 μM)	Average IL-1β (NLRP3 inflammasome; 75 μM)	Average (% positive control) (NLRP3 inflammasome; 18.75 μM)	Average (% positive control) (NLRP3 inflammasome; 37.5 μM)	Average (% positive control) (NLRP3 inflammasome; 75 μM)	Structure (SMILES)	cytotoxicity at 18.75 µM (BMDCs; [1])	cytotoxicity at 37.5 µM (BMDCs; [2])	cytotoxicity at 75 µM (BMDCs; [3])	cytotoxicity at 18.75 µM (BMDCs; [4])	cytotoxicity at 37.5 µM (BMDCs; [5])	cytotoxicity at 75 µM (BMDCs; [6])	Average (% positive control) (BMDCs; 18.75 μM)	Average (% positive control) (BMDCs; 37.5 μM)	Average (% positive control) (BMDCs; 75 μM)	IL-1β (NLRP3 inflammasome; 18.75 μM)	IL-1β (NLRP3 inflammasome; 37.5 μM)	IL-1β (NLRP3 inflammasome; 75 μM)
1.335 ng/mL	1.594 ng/mL	1.217 ng/mL	21.124 % positive control	25.211 % positive control	19.256 % positive control	COc1ccc(NC(=O)Nc2ccc(-c3noc(CC4CCCN(Cc5cccc(F)c5C)C4)n3)cc2)cc1 (stereo not drawn) [PM07, 1-[4-(5-((1-(3-fluoro-2-methylbenzyl)piperidin-3-yl)methyl)-1,2,4-oxadiazol-3-yl)phenyl]-3-[(4-methoxy)phenyl] urea]	51%	69.3%	85.6%	50.4%	67.7%	85.1%	71.489 % positive control	97.102 % positive control	120.051 % positive control	1.117 ng/mL and 1.248 ng/mL and 1.641 ng/mL	1.916 ng/mL and 1.571 ng/mL and 1.295 ng/mL	1.202 ng/mL and 1.130 ng/mL and 1.320 ng/mL
0.777 ng/mL	0.846 ng/mL	0.890 ng/mL	12.288 % positive control	13.380 % positive control	14.083 % positive control	Cc1c(F)cccc1CN1CCCC(Cc2nc(-c3ccc(NC(=O)Nc4ccccc4)cc3)no2)C1 (stereo not drawn) [PM16, 1-(4-(5-((1-(3-fluoro-2-methylbenzyl)piperidin-3-yl)methyl)-1,2,4-oxadiazol-3-yl)phenyl)-3-phenylurea]	72.8%	90%	97.5%	72%	89%	100%	102.052 % positive control	126.179 % positive control	136.598 % positive control	0.764 ng/mL and 0.830 ng/mL and 0.736 ng/mL	0.895 ng/mL and 0.795 ng/mL and 0.848 ng/mL	0.876 ng/mL and 0.848 ng/mL and 0.948 ng/mL
0.105 ng/mL	0.291 ng/mL	0.417 ng/mL	1.666 % positive control	4.609 % positive control	6.592 % positive control	O=C(Nc1cccc(Cl)c1)Nc1ccc([N+](=O)[O-])cc1Cl [TCMDC-143175, 3-(2-chloro-4-nitrophen-yl)-1-(3-chlorophenyl)-urea]	35.5%	74.7%	91.4%	35.3%	72.8%	91.5%	49.754 % positive control	104.647 % positive control	128.113 % positive control	0.102 ng/mL and 0.104 ng/mL and 0.110 ng/mL	0.309 ng/mL and 0.275 ng/mL and 0.290 ng/mL	0.423 ng/mL and 0.381 ng/mL and 0.446 ng/mL
